Laboratory results as given in patent publication US9839642B2, “Beta-tetrazolyl-propionic acids as metallo-beta-lactamase inhibitors” (priority 2014, dated 2017).

Key:
IMP-1 = IMP-1 (Serratia marcescens, UniProt P52699); assay: Enzyme activity: determination of IC50, fluorescence assay with CCF2-FA substrate; format: biochemical; conditions: IMP-1 enzyme 2 pM, CCF2-FA 1.25 μM, 2 hours at 25° C.; read-out: IMP1 IC50
Outline: (§1)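 Read-out: fluorescence, ex 405 nm / em 460 nm, after 2 h at 25° C with 1.25 μM CCF2-FA. Buffer 100 mM KH2PO4 pH 7, 0.005% Tween-20, 10 μM ZnSO4; enzyme 1 pM NDM-1, 2 pM IMP-1, 30 pM VIM-1. IC50 by 4-parameter fit.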

NDM-1 = NDM-1 (Klebsiella pneumoniae, UniProt C7C422); assay: as above; format: biochemical; conditions: NDM-1 enzyme 1 pM, CCF2-FA 1.25 μM, 2 hours at 25° C.; read-out: NDM1 IC50
Sequence of NDM-1 (C7C422 29-270, looked up, species assumed): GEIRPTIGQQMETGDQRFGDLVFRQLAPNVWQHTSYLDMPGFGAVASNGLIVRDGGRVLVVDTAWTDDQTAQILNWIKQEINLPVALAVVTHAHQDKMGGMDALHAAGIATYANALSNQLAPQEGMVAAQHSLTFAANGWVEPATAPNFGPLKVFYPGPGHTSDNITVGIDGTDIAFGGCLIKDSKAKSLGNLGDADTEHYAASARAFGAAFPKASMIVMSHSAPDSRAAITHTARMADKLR
Outline: as §1

VIM-1 = VIM-1 (Pseudomonas aeruginosa, UniProt A0A0F7KYQ8); assay: as above; format: biochemical; conditions: VIM-1 enzyme 30 pM, CCF2-FA 1.25 μM, 2 hours at 25° C.; read-out: VIM1 IC50
Outline: as §1

[1] = test system: Escherichia coli expressing NDM-1 (CLB30016); assay: Antibiotic potentiation activity: synergistic concentration (MITC95) with imipenem, growth by OD600; format: cell-based; conditions: E. coli CLB30016 (NDM-1), 95% inhibition of growth
Outline: (§2)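 Strains grown overnight at 35° C, resuspended in saline, diluted 1:100 into 1.1×CAMHB; imipenem at 1 μg/ml or 4 μg/ml with test compound 200 μM to 0.195 μM. Incubated 22 hours to 24 hours at 35° C, OD600 read; MITC95 is lowest compound concentration inhibiting 95% of growth.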

[2] = test system: Klebsiella pneumoniae expressing VIM-1 (IHMA599644); assay: as above; format: cell-based; conditions: K. pneumoniae IHMA599644 (VIM-1), 95% inhibition of growth
Outline: as §2

[3] = test system: Serratia marcescens expressing IMP-1 (CL5741); assay: as above; format: cell-based; conditions: S. marcescens CL5741 (IMP-1), 95% inhibition of growth
Outline: as §2

Sequence of IMP-1 (P52699 19-246, looked up, species assumed): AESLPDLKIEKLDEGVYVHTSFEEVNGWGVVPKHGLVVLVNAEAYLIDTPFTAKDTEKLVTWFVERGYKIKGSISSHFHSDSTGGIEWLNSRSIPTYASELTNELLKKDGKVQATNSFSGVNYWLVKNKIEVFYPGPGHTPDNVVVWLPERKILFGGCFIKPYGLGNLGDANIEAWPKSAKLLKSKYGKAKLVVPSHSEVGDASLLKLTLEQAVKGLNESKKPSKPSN

Row | Structure (SMILES) | IC50 (IMP-1) [nM] | IC50 (NDM-1) [nM] | IC50 (VIM-1) [nM] | NDM1 EC30016 MITC95 [1] [µM] | VIM1 KP599644 MITC95 [2] [µM] | IMP1 SM5741 MITC95 [3] [µM]
1 | CC(C)C[C@H](C(=O)O)[C@H](Cc1ccc(Oc2cccc3c2CCNC3)nc1)c1nn[nH]n1 [Example 388, (2S)-4-methyl-2-[(1S)-2-[6-(1,2,3,4-tetrahydroisoquinolin-5-yloxy)pyridin-3-yl]-1-(2H-tetrazol-5-yl)ethyl]pentanoic acid] | 340 | 130 | 18 | 25 | 38 | 18.8
2 | CC(C)C[C@H](C(=O)O)[C@H](Cc1ccc(Oc2cccc3c2CCCN3)nc1)c1nn[nH]n1 [Example 389, (2S)-4-methyl-2-[(1S)-2-[6-(1,2,3,4-tetrahydroquinolin-5-yloxy)pyridin-3-yl]-1-(2H-tetrazol-5-yl)ethyl]pentanoic acid] | 58 | 16 | 4.4 | 25 | 100 | 6.2
3 | CC(C)C[C@H](C(=O)O)[C@H](Cc1ccc(Oc2ccc(CN)cc2)nc1)c1nn[nH]n1 [Example 390, (2S)-2-[(1S)-2-{6-[4-(aminomethyl)phenoxy]pyridin-3-yl}-1-(2H-tetrazol-5-yl)ethyl]-4-methylpentanoic acid] | 240 | 35 | 5.3 | 1.6 | 25 | 12.5
4 | CC(C)C[C@H](C(=O)O)[C@H](Cc1ccc(Oc2ccccn2)nc1)c1nn[nH]n1 [Example 391, (2S)-4-methyl-2-[(1S)-2-[6-(pyridin-2-yloxy)pyridin-3-yl]-1-(2H-tetrazol-5-yl)ethyl]pentanoic acid] | 640 | 44 | 52 | 25 | 100 | 25
5 | CCC[C@H](C(=O)O)[C@H](Cc1ccccc1-c1ccccc1)c1nn[nH]n1 [Example 393, (2S)-2-[(1S)-2-biphenyl-2-yl-1-(2H-tetrazol-5-yl)ethyl]pentanoic acid] | 1000 | 3.2 | 4.5 | 4.7 | 75 | 25
6 | CCC[C@H](C(=O)O)[C@H](Cc1ccccc1-c1ccc(C(N)=O)cc1)c1nn[nH]n1 [Example 394, (2S)-2-[(1S)-2-(4′-carbamoylbiphenyl-2-yl)-1-(2H-tetrazol-5-yl)ethyl]pentanoic acid] | 450 | 2.2 | 3.9 | 4.7 | 38 | 25
7 | CCC[C@H](C(=O)O)[C@H](Cc1ccccc1-c1ccc(C2CCNCC2)cc1)c1nn[nH]n1 [Example 395, (2S)-2-[(1S)-2-(4′-piperidin-4-ylbiphenyl-2-yl)-1-(2H-tetrazol-5-yl)ethyl]pentanoic acid] | 120 | 0.1 | 0.48 | 6.2 | 16 | 6.25
8 | CCC[C@H](C(=O)O)[C@H](Cc1ccccc1-c1cccnc1)c1nn[nH]n1 [Example 396, (2S)-2-[(1S)-2-(2-pyridin-3-ylphenyl)-1-(2H-tetrazol-5-yl)ethyl]pentanoic acid] | 2800 | 9.2 | 18 | 9.4 | 50 | 75
9 | CCC[C@H](C(=O)O)[C@H](Cc1ccccc1-c1ccncc1)c1nn[nH]n1 [Example 397, (2S)-2-[(1S)-2-(2-pyridin-4-ylphenyl)-1-(2H-tetrazol-5-yl)ethyl]pentanoic acid] | 5000 | 13 | 16 | 6.2 | 75 | 200
10 | CCC[C@H](C(=O)O)[C@H](Cc1ccccc1-c1ccc(N)nc1)c1nn[nH]n1 [Example 398, (2S)-2-[(1S)-2-[2-(6-aminopyridin-3-yl)phenyl]-1-(2H-tetrazol-5-yl)ethyl]pentanoic acid] | 1100 | 1.6 | 10 | 3.1 | 25 | 75
11 | CCC[C@H](C(=O)O)[C@H](Cc1ccccc1-c1cccc(C(N)=O)c1)c1nn[nH]n1 [Example 399, (2S)-2-[(1S)-2-(3′-carbamoylbiphenyl-2-yl)-1-(2H-tetrazol-5-yl)ethyl]pentanoic acid] | 430 | 1.4 | 1.6 | 6.2 | 25 | 25
12 | CC(C)C[C@H](C(=O)O)[C@H](Cc1ccc(Oc2cccc(CN)c2)nc1)c1nn[nH]n1 [Example 400, (2S)-2-[(1S)-2-{6-[3-(aminomethyl)phenoxy]pyridin-3-yl}-1-(2H-tetrazol-5-yl)ethyl]-4-methylpentanoic acid] | 750 | 340 | 42 | 12.5 | 50 | 25
13 | CCC[C@H](C(=O)O)[C@H](Cc1ccccc1-c1ccc(S(N)(=O)=O)cc1)c1nn[nH]n1 [Example 401, (2S)-2-[(1S)-2-(4′-sulfamoylbiphenyl-2-yl)-1-(2H-tetrazol-5-yl)ethyl]pentanoic acid] | 1900 | 3.9 | 13 | 9.4 | 50 | 50
14 | CCC[C@H](C(=O)O)[C@H](Cc1ccccc1-c1ccc(NS(C)(=O)=O)cc1)c1nn[nH]n1 [Example 402, (2S)-2-[(1S)-2-{4′-[(methylsulfonyl)amino]biphenyl-2-yl}-1-(2H-tetrazol-5-yl)ethyl]pentanoic acid] | 230 | 0.095 | 1.5 | 3.1 | 25 | 12.5
15 | CCC[C@H](C(=O)O)[C@H](Cc1ccccc1-c1ccc(CO)cc1)c1nn[nH]n1 [Example 403, (2S)-2-[(1S)-2-[4′-(hydroxymethyl)biphen-yl-2-yl]-1-(2H-tetrazol-5-yl)ethyl]pentanoic acid] | 550 | 2.4 | 3.3 | 9.4 | 50 | 18.8
16 | CC(C[C@H](C(=O)O)[C@H](Cc1ccc(N)nc1)c1nnn[nH]1)c1ccccc1 (stereo partly drawn) [Example 404, (2S)-2-((S)-2-(6-aminopyridin-3-yl)-1-(1H-tetrazol-5-yl)ethyl)-4-phenylpentanoic acid] | 622 | 228 | 21.9 | 18.75 | 75 | 75
17 | CCC[C@H](C(=O)O)[C@H](CCc1ccc(N)nc1)c1nnn[nH]1 [Example 405, (2S,3S)-5-(6-aminopyridin-3-yl)-2-propyl-3-(1H-tetrazol-5-yl)pentanoic acid] | 14800 | 2830 | 39.6 | 12.5 | 12.5 | 200
